According to ChEMBL document CHEMBL1126188, “Synthesis and anti-HIV activity of 4'-thio-2',3'-dideoxynucleosides” (J Med Chem, 1992):
In brackets after ≈: the same amount, converted by molar mass.

Legend:
[1] = tested on: CCRF-CEM; test: Compound was tested for its inhibitory activity against HIV replication in CEM cells.; conditions: Homo sapiens
[2] = tested on: CCRF-CEM; test: Total viral index (TAI) is the area between the cytotoxicity and the antiviral activity curve for CEM cells.
[3] = tested on: CCRF-CEM; test: Minimum compound concentration that reduced cell viability by 25% for HIV replication in CEM cells.
[4] = Selectivity index is calculated by dividing the TC25(CEM) by ID50(CEM); type: functional
[5] = tested on: MT2; test: Total viral index (TAI) is the area between the cytotoxicity and the antiviral activity curve for MT-2 cell line.; type: functional, Homo sapiens
[6] = tested on: CCRF-CEM; test: Minimum compound concentration that reduced cell viability by 25% for HIV replication in CEM cells.; type: functional, Homo sapiens
[7] = tested on: MT2; test: Minimum compound concentration that reduced cell viability by 25% for HIV replication in MT-2 cells.; type: functional, Homo sapiens
[8] = tested on: MT2; test: Compound was tested for its inhibitory activity against HIV replication in MT-2 cells.; type: functional, cell-based; conditions: Homo sapiens
[9] = Selectivity index is calculated by dividing the TC25(MT2) by ID50(MT2); type: functional
[10] = tested on: CCRF-CEM; test: Compound was tested for its inhibitory activity against HIV replication in CEM cells.; type: functional, cell-based; conditions: Homo sapiens
[11] = tested on: CCRF-CEM; test: Total viral index (TAI) is the area between the cytotoxicity and the antiviral activity curve for CEM cells.; type: functional, Homo sapiens
[12] = tested on: CCRF-CEM; test: Total viral index (TAI) is the area between the cytotoxicity and the antiviral activity curve for CEM cell line.; type: functional, Homo sapiens
[13] = tested on: MT2; test: Total viral index (TAI) is the area between the cytotoxicity and the antiviral activity curve for MT-2 cells.; type: functional, Homo sapiens

IC50 [1] | IC50 [8] | IC50 [10] | Compound | TAI [2] | TC25 [3] | Selectivity index [4] | TAI [5] | TC25 [6] | TC25 [7] | Selectivity index [9] | TAI [11] | TAI [12] | TAI [13]
 | 98 µg/mL (≈ 367 µM) |  | Nc1nc(O)c2ncn(C3CC[C@@H](CO)S3)c2n1 (some centres not stated) |  |  |  | 11 | >100 µg/mL | >200 µg/mL | 1.6 |  |  | 
 | 0.44 µg/mL (≈ 2.08 µM) | 0.05 µg/mL (≈ 0.237 µM) | Nc1ccn([C@H]2CC[C@@H](CO)O2)c(=O)n1 [ZALCITABINE] |  |  | 120 | >52 | 5.3 µg/mL (≈ 25.1 µM) | >9.8 µg/mL | > 25 | >63 |  | 
 | 80 µg/mL (≈ 318 µM) |  | Nc1ncnc2c1ncn2C1CC[C@@H](CO)S1 (some centres not stated) |  |  |  | >10 |  | >100 µg/mL | 1.3 |  |  | 
 | 38 µg/mL (≈ 167 µM) | 1 µg/mL (≈ 4.4 µM) | Nc1ccn(C2CC[C@@H](CO)S2)c(=O)n1 (some centres not stated) |  |  | > 100 |  | >100 µg/mL | >100 µg/mL | > 100 |  | >65 | >23

More lines, now with the values behind:

Compound | IC50 [1] | IC50 [8] | IC50 [10] | TAI [2] | TC25 [3] | Selectivity index [4] | TAI [5] | TC25 [6] | TC25 [7] | Selectivity index [9] | TAI [11] | TAI [12] | TAI [13]
Nc1nc(N)c2ncn(C3CC[C@@H](CO)S3)c2n1 (some centres not stated) | 37 µg/mL (≈ 139 µM) |  |  | 21 | 97 µg/mL (≈ 364 µM) | 2.6 |  |  |  |  |  |  | 
Cc1cn([C@H]2C[C@H](N=[N+]=[N-])[C@@H](CO)O2)c(=O)[nH]c1=O [ZIDOVUDINE] |  | 0.14 µg/mL (≈ 0.524 µM) | < 0.03 µg/mL |  |  | > 300 | >82 | >10 µg/mL | 9.3 µg/mL (≈ 34.8 µM) | > 160 | >93 |  | 
